# Source: patent EP2796135A1, “Use of trifluoroacetic acid and salts thereof to treat hypercholesterolemia” (POLICHEM S.A., priority 2013, dated 2014)
# Where a name gives a salt, the structure may show the parent alone.
# Legend:
# [1] = preliminary oral study with ascending dose levels in minipigs (Example 13); assay type: in vivo, Göttingen minipig; settings: in vivo, minipig, read-out: maximum tolerated dose
# Description: (§1) A preliminary oral study of the Calcium salt of trifluoroacetic acid was performed in minipigs. One male and one female Göttingen minipig were daily treated by oral route with ascending dose levels of Calcium salt of trifluoroacetic acid, as indicated below.
# (§2) The oral solutions were prepared as for Example 1.
# [2] = test system: total cholesterol; assay: as above; assay type: in vivo, Göttingen minipig; settings: for decrease of total cholesterol: male
# Description: as §1, §2
# [3] = test system: total cholesterol; assay: intravenous study in dogs, daily administration for 4 weeks (Example 15); assay type: in vivo, Beagle dogs; settings: for reduction in total cholesterol: intravenous, end of the 4 weeks of treatment
# Description: An intravenous study of the Calcium salt of trifluoroacetic acid was performed in Beagle dogs after daily administration for 4 weeks.
# Dogs (4 animals/sex/group) were treated by intravenous slow injection (2.5 mL/min) with 50, 100 and 200 mg/kg for 4 consecutive weeks.
# (§3) The intravenous solutions were prepared as for Example 9.
# [4] = test system: total cholesterol; assay: preliminary intravenous study in dogs, daily administration for 14 days (Example 14); assay type: in vivo, Beagle dogs; settings: for reduction in total cholesterol: end of the 14 days of treatment
# Description: A preliminary intravenous study of the Calcium salt of trifluoroacetic acid was performed in Beagle dogs after daily administration.
# Dogs (2 animals/sex/group) were treated by intravenous slow injection (2.5 mL/min) with 100 and 200 mg/kg for 14 consecutive days.
# as §3
# [5] = ascending doses 50-1000 mg/kg/day
# [6] = intravenous, 100 and 200 mg/kg, 14 consecutive days
smiles,measurement,setting,value
"O=C(O)C(F)(F)F [Calcium salt of trifluoroacetic acid, Calcium trifluoroacetate]",MTD,[1],≥ 1000 mg/kg
same,"changes in body weight, food consumption and water consumption",[2]; [5],No changes of toxicological relevance
same,changes in hematology,[2]; [5],No changes of note
same,mortality,"[2]; ascending doses 50-1000 mg/kg/day, one male and one female minipig",No mortality occurred
same,decrease of total cholesterol,[2]; 150 mg/kg/day,18%
same,decrease of total cholesterol,[2]; 200 mg/kg/day,33%
same,decrease of total cholesterol,[2]; 300 mg/kg/day,44%
same,decrease of total cholesterol,[2]; 600 mg/kg/day,49%
same,decrease of total cholesterol,[2]; 1000 mg/kg/day,56%
same,"changes in body weight, food consumption and water consumption, hematological, chemical chemistry, fecal and urinalysis parameters","[3]; both sexes, intravenous, 50, 100 and 200 mg/kg, 4 weeks",No changes of toxicological relevance
same,reduction in total cholesterol,"[3]; females, 50 mg/kg/day",20%
same,reduction in total cholesterol,"[3]; females, 100 mg/kg/day",29%
same,reduction in total cholesterol,"[3]; females, 200 mg/kg/day",24%
same,deaths,"[3]; intravenous slow injection, 50, 100 and 200 mg/kg, 4 consecutive weeks",No deaths occurred
same,organ weights,"[3]; intravenous, 50, 100 and 200 mg/kg, 4 weeks",unaffected
same,findings at the site of injection and electrographic alterations,"[3]; intravenous, 50, 100 and 200 mg/kg, 4 weeks, findings at the site of injection minimal to moderate",dose dependent and reversible
same,reduction in total cholesterol,"[3]; males, 50 mg/kg/day",9%
same,reduction in total cholesterol,"[3]; males, 100 mg/kg/day",21%
same,reduction in total cholesterol,"[3]; males, 200 mg/kg/day",15%
same,reduction in total cholesterol,"[4]; females, intravenous, 100 mg/kg/day",29%
same,reduction in total cholesterol,"[4]; females, intravenous, 200 mg/kg/day",16%
same,deaths,"[4]; intravenous slow injection, 100 and 200 mg/kg, 14 consecutive days",No deaths occurred
same,"differences in body weight, food consumption, physical examination and chemical chemistry, coagulation, organ weight",[4]; [6],No significant differences
same,findings recorded in the study,[4]; [6],limited to the site of injection
same,reduction in total cholesterol,"[4]; males, intravenous, 100 mg/kg/day",18%
same,reduction in total cholesterol,"[4]; males, intravenous, 200 mg/kg/day",21%
